From publication PMC10247784, “Physiological activation of human and mouse bitter taste receptors by bile acids” (Communications Biology, 2023)
Several values for one entry are separate records, joined by “and”; a condition that tells them apart may be missing. Identical values can stand only once.

Target: T1, human TAS2R1 (Homo sapiens, UniProt Q9NYW7)
T1 construct: expressed in transfected cells; host or cells: HEK293T-Gα16gust44
T1 sequence (Q9NYW7 1-299): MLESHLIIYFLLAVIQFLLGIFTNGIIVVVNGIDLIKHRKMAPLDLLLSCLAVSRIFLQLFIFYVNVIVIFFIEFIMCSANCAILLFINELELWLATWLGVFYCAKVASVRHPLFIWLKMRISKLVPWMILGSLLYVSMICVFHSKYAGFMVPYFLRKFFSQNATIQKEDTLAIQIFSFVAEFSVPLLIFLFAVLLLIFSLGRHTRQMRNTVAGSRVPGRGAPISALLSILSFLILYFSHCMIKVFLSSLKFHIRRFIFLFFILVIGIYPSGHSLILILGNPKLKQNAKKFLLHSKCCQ
Assay: Calcium imaging assay (FLIPR), HEK293T-Gα16gust44 cells transfected with human TAS2R1
Type: cell-based
How it was run: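 Bile acids from DMSO stocks are applied to dye-loaded cells one day after transient receptor transfection, and calcium-dependent fluorescence is recorded. Maximum signal is standardized to basal and normalized to buffer-only wells, with empty-vector signal subtracted.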

C[C@H](CCC(=O)O)[C@H]1CC[C@H]2[C@@H]3CC[C@@H]4C[C@H](O)CC[C@]4(C)[C@H]3CC[C@]12C [Lithocholic Acid, lithocholic acid]
Efficacy = maximal amplitude (ΔF/F) (TAS2R1, bile acids, mean): 0.1221
Efficacy (maximal amplitude ΔF/F), individual data points (TAS2R1, bile acids, single replicates, listed as LCA): 0.1505 and 0.1173 and 0.0984
RLU (Time 0 s): 0 RLU
RLU (Time 2.015 s): -14.5951 RLU
RLU (Time 4.015 s): -7.128 RLU
RLU (Time 6.015 s): 1.224 RLU
RLU (Time 8.015 s): 0.3531 RLU
RLU (Time 12.015 s): -16.4638 RLU
RLU (Time 14.015 s): -4.132 RLU
RLU (Time 16.015 s): -20.8125 RLU
RLU (Time 18.015 s): 1.1121 RLU
RLU (Time 18.796 s): 25.7864 RLU
RLU (Time 20.796 s): 69.0707 RLU
RLU (Time 22.796 s): 111.584 RLU
RLU (Time 24.796 s): 140.624 RLU
RLU (Time 26.796 s): 217.83 RLU
RLU (Time 28.796 s): 298.948 RLU
RLU (Time 30.796 s): 381.71 RLU
RLU (Time 32.796 s): 449.564 RLU
RLU (Time 34.796 s): 475.411 RLU
RLU (Time 36.796 s): 563.041 RLU
RLU (Time 38.796 s): 583.488 RLU
RLU (Time 40.796 s): 612.54 RLU
RLU (Time 42.796 s): 644.654 RLU
RLU (Time 44.796 s): 679.197 RLU
RLU (Time 46.796 s): 695.288 RLU
RLU (Time 48.796 s): 701.461 RLU
RLU (Time 50.796 s): 756.471 RLU
RLU (Time 52.796 s): 734.503 RLU
RLU (Time 54.796 s): 776.344 RLU
RLU (Time 56.796 s): 818.875 RLU
RLU (Time 58.796 s): 815.634 RLU
RLU (Time 60.796 s): 814.863 RLU
RLU (Time 62.796 s): 815.671 RLU
RLU (Time 64.796 s): 814.539 RLU
RLU (Time 66.796 s): 840.236 RLU
RLU (Time 68.796 s): 839.926 RLU
RLU (Time 70.796 s): 857.451 RLU
RLU (Time 72.796 s): 860.887 RLU
RLU (Time 74.796 s): 876.325 RLU
RLU (Time 76.796 s): 873.737 RLU
RLU (Time 78.796 s): 889.618 RLU
RLU (Time 80.796 s): 892.644 RLU
RLU (Time 82.796 s): 897.83 RLU
RLU (Time 84.796 s): 886.895 RLU
RLU (Time 86.796 s): 870.09 RLU
RLU (Time 88.796 s): 907.185 RLU
RLU (Time 90.796 s): 877.458 RLU
RLU (Time 92.796 s): 891.158 RLU
RLU (Time 94.796 s): 920.191 RLU
RLU (Time 96.796 s): 905.406 RLU
RLU (Time 98.796 s): 898.952 RLU
RLU (Time 100.796 s): 892.147 RLU
RLU (Time 102.796 s): 894.991 RLU
RLU (Time 104.796 s): 894.373 RLU
RLU (Time 106.796 s): 867.268 RLU
RLU (Time 108.796 s): 872.524 RLU
RLU (Time 110.796 s): 857.451 RLU
RLU (Time 112.796 s): 864.824 RLU
RLU (Time 114.796 s): 846.501 RLU
RLU (Time 116.796 s): 868.556 RLU
RLU (Time 118.796 s): 842.814 RLU
RLU (Time 120.796 s): 851.852 RLU
RLU (Time 122.796 s): 861.523 RLU
RLU (Time 124.796 s): 851.498 RLU
RLU (Time 126.796 s): 820.705 RLU
RLU (Time 128.796 s): 833.006 RLU
RLU (Time 130.796 s): 811.797 RLU
RLU (Time 132.796 s): 786.781 RLU
RLU (Time 134.796 s): 809.512 RLU
RLU (Time 136.796 s): 797.52 RLU
RLU (Time 137.562 s): 816.516 RLU
RLU (Time 143.562 s): 785.521 RLU
RLU (Time 149.562 s): 770.713 RLU
RLU (Time 155.562 s): 645 RLU
RLU (Time 161.562 s): 650.189 RLU
RLU (Time 167.562 s): 602.288 RLU
RLU (Time 173.562 s): 588.477 RLU
RLU (Time 179.562 s): 570.66 RLU
RLU (Time 185.562 s): 562.77 RLU
RLU (Time 191.562 s): 515.911 RLU
RLU (Time 197.562 s): 487.382 RLU
RLU (Time 203.562 s): 468.151 RLU
RLU (Time 209.562 s): 433.685 RLU
RLU (Time 215.562 s): 406.858 RLU
RLU (Time 221.562 s): 386.034 RLU
RLU (Time 227.562 s): 427.313 RLU
RLU (Time 233.562 s): 409.48 RLU
RLU (Time 239.562 s): 419.888 RLU
RLU (Time 245.562 s): 384.802 RLU
RLU (Time 293.562 s): 250.547 RLU
RLU (Time 299.562 s): 240.784 RLU
RLU (calcium trace, sheet TAS2R1, Time 305.562 s): 255.305 RLU
RLU (calcium trace, sheet TAS2R1, Time 311.562 s): 251.175 RLU
RLU (calcium trace, sheet TAS2R1, Time 317.562 s): 242.237 RLU
RLU (calcium trace, sheet TAS2R1, Time 323.562 s): 237.346 RLU
RLU (calcium trace, sheet TAS2R1, Time 329.562 s): 210.072 RLU
RLU (calcium trace, sheet TAS2R1, Time 335.562 s): 207.541 RLU
RLU (calcium trace, sheet TAS2R1, Time 341.562 s): 224.802 RLU
RLU (calcium trace, sheet TAS2R1, Time 347.562 s): 199.834 RLU
RLU (calcium trace, sheet TAS2R1, Time 353.562 s): 189.761 RLU
RLU (calcium trace, sheet TAS2R1, Time 359.562 s): 182.753 RLU
Activation threshold concentration TAS2R1 (lowest concentration with significantly increased fluorescence vs empty vector (p < 0.01)): 0.3 µM and 0.30 µM
